Values quoted from earlier work as cited in patent US8426470B2, “Method for alleviating signs and symptoms of spasticity” (Sun Pharmaceutical Industries Ltd., priority 2006, dated 2013).

Assays:
[1] = tested on: spasticity; details: in vivo

- Plasma elimination half-life (in vivo): approximately 3.5 hours
- concentrations in the cerebrospinal fluid (CSF) relative to those in the plasma (in vivo): about 12%
- elimination half-life from the CSF (in vivo): 4 to 5 h
- fraction metabolized in the liver (remainder excreted mainly by the kidneys in unchanged form): 15%
SMILES: NCC(CC(=O)O)c1ccc(Cl)cc1 (centres unmarked) [Baclofen, 4-amino-3-(4-chlorophenyl)-butanoic acid]
- lowest concentration in plasma at which a significant reduction in spasticity was observed [1]: 90 ng/mL
